# Measured values: patent US10518266B2, “Microtiter plate and uses thereof” (ONEXIO BIOSYSTEMS LLC, priority 2016, dated 2019)
# Like-named read-outs stand apart in the source and are kept apart here.
# How the values were obtained:
# Assay type in all cases: cell-based
# [1] = test system: HEK293 cells; experiment: Conferred cytotoxicity assay, HEK293 cells in co-culture with primary human hepatocytes in the device; conditions: primary human hepatocytes (PHH) as bioactivator vs HEK293 mono-culture; FIG. 18a,b
# [2] = test system: HEK293 cells
# [3] = test system: estrogen receptor driven luciferase reporter protein stably expressed in the MVLN cell line; experiment: MVLN estrogen receptor driven luciferase reporter assay, co-culture with HepG2 cells in the device
# [4] = test system: ER-transactivation in MVLNs; experiment: ER-transactivation in MVLN luciferase cells co-cultured with HepaRG cells in the device; conditions: MVLN co-cultured with HepaRG vs mono-culture; FIG. 18C
smiles,measurement,setting,value
COc1cccc2c1C(=O)c1c(O)c3c(c(O)c1C2=O)C[C@@](O)(C(=O)CO)C[C@@H]3O[C@H]1C[C@H](N)[C@H](O)[C@H](C)O1 [doxorubicin],conferred toxicity to HEK293 cells,[1],conferred toxicity
COc1cc2c(c3oc(=O)c4c(c13)CCC4=O)[C@@H]1C=CO[C@@H]1O2 [aflatoxin],conferred toxicity to HEK293 cells,[2],conferred toxicity
C[C@]12CC[C@H]3[C@@H](CCC4=CC(=O)CC[C@@]43C)[C@@H]1CC[C@@H]2O [testosterone],MVLN reporter activity,[3],activates MVLN reporter activity
Oc1ccc(Cc2ccccc2)cc1 [4-benzylphenol],ER-transactivation in MVLNs (metabolic competence of the device),[4],shows competence
